Laboratory results from the NIST ThermoML archive (doi:10.1021/acs.jced.8b00554).

Experiment: xn = mol fraction of the nth substance listed
Details: Liquid, Vibrating tube method

CCCCCCCC [octane] + CCCO
Details	mass density [kg/m3]
353.15 K, 10010 kPa, x2 = 0.3158	674.1
353.15 K, 10010 kPa, x2 = 0.4411	682.1
353.15 K, 10010 kPa, x2 = 0.7301	710.33
353.15 K, 11000 kPa, x2 = 0.1631	668.3
353.15 K, 11000 kPa, x2 = 0.7301	711.46
353.15 K, 11000 kPa, x2 = 0.8823	735.72
353.15 K, 11010 kPa, x2 = 0.4411	683.25
353.15 K, 11020 kPa, x2 = 0.2111	670.17
353.15 K, 11020 kPa, x2 = 0.3158	675.25
353.15 K, 12000 kPa, x2 = 0.2111	671.35
353.15 K, 12000 kPa, x2 = 0.3158	676.4
353.15 K, 12000 kPa, x2 = 0.4411	684.41
353.15 K, 12000 kPa, x2 = 0.7301	712.61
353.15 K, 12010 kPa, x2 = 0.1631	669.46
353.15 K, 12020 kPa, x2 = 0.8823	736.81
353.15 K, 13000 kPa, x2 = 0.3158	677.55
353.15 K, 13010 kPa, x2 = 0.1631	670.56
353.15 K, 13010 kPa, x2 = 0.8823	737.84
353.15 K, 13020 kPa, x2 = 0.2111	672.46
353.15 K, 13020 kPa, x2 = 0.4411	685.53
353.15 K, 13020 kPa, x2 = 0.7301	713.71
353.15 K, 14000 kPa, x2 = 0.1631	671.69
353.15 K, 14000 kPa, x2 = 0.3158	678.66
353.15 K, 14000 kPa, x2 = 0.4411	686.68
353.15 K, 14000 kPa, x2 = 0.7301	714.83
353.15 K, 14010 kPa, x2 = 0.2111	673.57
353.15 K, 14010 kPa, x2 = 0.8823	738.9
353.15 K, 15000 kPa, x2 = 0.4411	687.73
353.15 K, 15000 kPa, x2 = 0.8823	739.94
353.15 K, 15010 kPa, x2 = 0.1631	672.77
353.15 K, 15020 kPa, x2 = 0.2111	674.7
353.15 K, 15020 kPa, x2 = 0.3158	679.74
353.15 K, 15020 kPa, x2 = 0.7301	715.89
353.15 K, 16010 kPa, x2 = 0.1631	673.82
353.15 K, 16010 kPa, x2 = 0.2111	675.76
353.15 K, 16010 kPa, x2 = 0.3158	680.86
353.15 K, 16010 kPa, x2 = 0.7301	716.98
353.15 K, 16010 kPa, x2 = 0.8823	740.94
353.15 K, 16020 kPa, x2 = 0.4411	688.85
353.15 K, 17000 kPa, x2 = 0.1631	674.88
353.15 K, 17000 kPa, x2 = 0.3158	681.92
353.15 K, 17000 kPa, x2 = 0.4411	689.88
353.15 K, 17010 kPa, x2 = 0.7301	718.02
353.15 K, 17020 kPa, x2 = 0.2111	676.83
353.15 K, 17020 kPa, x2 = 0.8823	741.94
353.15 K, 18010 kPa, x2 = 0.1631	675.92
353.15 K, 18010 kPa, x2 = 0.2111	677.86
353.15 K, 18010 kPa, x2 = 0.4411	690.94
353.15 K, 18010 kPa, x2 = 0.7301	719.02
353.15 K, 18010 kPa, x2 = 0.8823	742.92
353.15 K, 18020 kPa, x2 = 0.3158	682.96
353.15 K, 19000 kPa, x2 = 0.1631	676.89
353.15 K, 19010 kPa, x2 = 0.2111	678.87
353.15 K, 19010 kPa, x2 = 0.3158	683.98
353.15 K, 19010 kPa, x2 = 0.4411	691.96
353.15 K, 19010 kPa, x2 = 0.7301	720.02
353.15 K, 19010 kPa, x2 = 0.8823	743.88
353.15 K, 20000 kPa, x2 = 0.7301	721.02
353.15 K, 20000 kPa, x2 = 0.8823	744.83
353.15 K, 20010 kPa, x2 = 0.1631	677.88
353.15 K, 20010 kPa, x2 = 0.3158	684.96
353.15 K, 20010 kPa, x2 = 0.4411	692.97
353.15 K, 20020 kPa, x2 = 0.2111	679.82
363.15 K, 100 kPa, x2 = 0.1631	643.75
363.15 K, 100 kPa, x2 = 0.2111	645.23
363.15 K, 100 kPa, x2 = 0.3158	649.43
363.15 K, 100 kPa, x2 = 0.4411	656.74
363.15 K, 100 kPa, x2 = 0.7301	685.03
363.15 K, 100 kPa, x2 = 0.8823	711.1
363.15 K, 1000 kPa, x2 = 0.2111	646.4
363.15 K, 1010 kPa, x2 = 0.1631	644.92
363.15 K, 1010 kPa, x2 = 0.3158	650.63
363.15 K, 1020 kPa, x2 = 0.4411	658.07
363.15 K, 1020 kPa, x2 = 0.7301	686.21
363.15 K, 1020 kPa, x2 = 0.8823	712.01
363.15 K, 2000 kPa, x2 = 0.3158	652.01
363.15 K, 2000 kPa, x2 = 0.4411	659.42
363.15 K, 2000 kPa, x2 = 0.7301	687.5
363.15 K, 2000 kPa, x2 = 0.8823	713.23
363.15 K, 2010 kPa, x2 = 0.1631	646.32
363.15 K, 2010 kPa, x2 = 0.2111	647.77
363.15 K, 3000 kPa, x2 = 0.1631	647.65
363.15 K, 3010 kPa, x2 = 0.3158	653.38
363.15 K, 3010 kPa, x2 = 0.4411	660.78
363.15 K, 3010 kPa, x2 = 0.8823	714.49
363.15 K, 3020 kPa, x2 = 0.2111	649.11
363.15 K, 3020 kPa, x2 = 0.7301	688.81
363.15 K, 4010 kPa, x2 = 0.2111	650.5
363.15 K, 4010 kPa, x2 = 0.3158	654.7
363.15 K, 4010 kPa, x2 = 0.4411	662.14
363.15 K, 4010 kPa, x2 = 0.8823	715.75
363.15 K, 4020 kPa, x2 = 0.1631	649
363.15 K, 4020 kPa, x2 = 0.7301	690.17
363.15 K, 5000 kPa, x2 = 0.2111	651.8
